Source: patent publication US8063098B2, “GlyT1 receptor antagonists” (Hoffmann-La Roche Inc., priority 2008, dated 2011)

Target: T1, mGlyT-1b (Mus musculus, UniProt P28571)
T1 construct: host or cells: Flp-in-CHO
T1 sequence (P28571 1-651 isoform P28571-2): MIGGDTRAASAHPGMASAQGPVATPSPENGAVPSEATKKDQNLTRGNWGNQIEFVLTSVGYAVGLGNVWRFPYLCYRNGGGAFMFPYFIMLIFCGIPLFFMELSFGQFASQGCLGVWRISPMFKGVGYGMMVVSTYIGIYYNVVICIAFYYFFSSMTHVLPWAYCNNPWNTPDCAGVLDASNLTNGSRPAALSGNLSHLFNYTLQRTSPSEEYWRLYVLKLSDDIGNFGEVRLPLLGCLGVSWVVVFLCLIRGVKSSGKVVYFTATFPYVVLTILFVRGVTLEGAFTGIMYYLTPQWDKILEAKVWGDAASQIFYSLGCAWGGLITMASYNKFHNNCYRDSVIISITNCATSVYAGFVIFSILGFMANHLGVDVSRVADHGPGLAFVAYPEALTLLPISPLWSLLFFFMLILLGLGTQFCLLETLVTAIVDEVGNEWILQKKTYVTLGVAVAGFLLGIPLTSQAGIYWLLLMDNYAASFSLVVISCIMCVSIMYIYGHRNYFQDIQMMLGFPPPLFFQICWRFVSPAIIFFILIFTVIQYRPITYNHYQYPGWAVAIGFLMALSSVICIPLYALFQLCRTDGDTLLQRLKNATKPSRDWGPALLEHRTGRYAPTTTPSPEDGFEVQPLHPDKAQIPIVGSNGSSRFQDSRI
Assay: Glycine uptake inhibition assay (mGlyT-1b), [3H]-glycine uptake in Flp-in-CHO cells
Type: cell-based
Details: Flp-in-CHO cells stably transfected with mGlyT1b cDNA, 20 min at 22° C. preincubation
Procedure: Nutrient mixture F-12 (Gibco Life-technologies), fetal bovine serum (FBS) 5%, (Gibco life technologies), Penicillin/Streptomycin 1% (Gibco life technologies), Hygromycin 0.6 mg/ml (Gibco life technologies), Glutamine 1 mM Gibco life technologies) • Uptake buffer (UB): 150 mM NaCl, 10 mM Hepes-Tris, pH 7.4, […], 2.5 mM KCl, 2.5 mM MgSO4, 10 mM (+) D-glucose. • Flp-in™-CHO (Invitrogen Cat n° R758-07) cells stably transfected with mGlyT1b cDNA. Glycine Uptake Inhibition Assay (mGlyT-1b)
On day 1 mammalian cells, (Flp-in™-CHO), transfected with mGlyT-1b cDNA, were plated at the density of 40,000 cells/well in complete F-12 medium, without hygromycin in 96-well culture plates. On day 2, the medium was aspirated and the cells were washed twice with uptake buffer (UB). The cells were then incubated for 20 min at 22° C. with either (i) no potential competitor, (ii) 10 mM non-radioactive glycine, (iii) a concentration of a potential inhibitor. A range of concentrations of the potential inhibitor was used to generate data for calculating the concentration of inhibitor resulting in 50% of the effect (e.g. IC50, the concentration of the competitor inhibiting glycine uptake of 50%). A solution was then immediately added containing [^3H]-glycine 60 nM (11-16 Ci/mmol) and 25 μM non-radioactive glycine. The plates were incubated with gentle shaking and the reaction was stopped by aspiration of the mixture and washing (three times) with ice-cold UB. The cells were lysed with scintillation liquid, shaken 3 hours and the radioactivity in the cells was counted using a scintillation counter.

Row | IC50 | Compound
1 | 0.0322 µM | CSc1cc(C(F)(F)F)ccc1C(=O)NC(c1cc(F)cc(F)c1)C1(N2CCCC2)CCC1 (stereo not shown) [Example 40, N-[(3,5-Difluoro-phenyl)-(1-pyrrolidin-1-yl-cyclobutyl)-methyl]-2-methylsulfanyl-4-trifluoromethyl-benzamide]
2 | 0.0496 µM | COc1cc(C(F)(F)F)cc(SC)c1C(=O)NC(c1ccccc1)C1(N2CCOCC2)CCC1 (stereo not shown) [Example 60, 2-Methoxy-6-methylsulfanyl-N-[(1-morpholin-4-yl-cyclobutyl)-phenyl-methyl]-4-trifluoromethyl-benzamide]
3 | 0.0596 µM | Cc1cc(F)ccc1C(=O)NC(c1ccccc1)C1(N2CCCC2)CCC1 (stereo not shown) [Example 57, 4-Fluoro-2-methyl-N-[phenyl-(1-pyrrolidin-1-yl-cyclobutyl)-methyl]-benzamide]
4 | 0.0127 µM | O=C(NC(c1ccccc1)C1(N2CCCC2)CCC1)c1ccc(C(F)(F)F)cc1Br (stereo not shown) [Example 52, 2-Bromo-N-[phenyl-(1-pyrrolidin-1-yl-cyclobutyl)-methyl]-4-trifluoromethyl-benzamide]
5 | 0.0225 µM | COc1cc(C(F)(F)F)cc(SC)c1C(=O)NC(c1ccccc1)C1(N2CCCC2)CCC1 (single isomer, unassigned; (+)) [Example 32, (+)-2-Methoxy-6-methylsulfanyl-N-[phenyl-(1-pyrrolidin-1-yl-cyclobutyl)-methyl]-4-trifluoromethyl-benzamide]
6 | 0.0211 µM | COc1cc(C(F)(F)F)cc(SC)c1C(=O)NC(c1ccc(Cl)cc1)C1(N2CCCC2)CCC1 (stereo not shown) [Example 39, N-[(4-Chloro-phenyl)-(1-pyrrolidin-1-yl-cyclobutyl)-methyl]-2-methoxy-6-methylsulfanyl-4-trifluoromethyl-benzamide]
7 | 0.0368 µM | COc1cc(C(F)(F)F)ccc1C(=O)NC(c1ccccc1)C1(N2CCCC2)CCC1 (stereo not shown) [Example 17, 2-Methoxy-N-[phenyl-(1-pyrrolidin-1-yl-cyclobutyl)-methyl]-4-trifluoromethyl-benzamide]
8 | 0.0237 µM | COc1cc(C(F)(F)F)cc(SC)c1C(=O)NC(c1ccccc1)C1(N2CCCCC2)CCC1 (stereo not shown) [Example 49, 2-Methoxy-6-methylsulfanyl-N-[phenyl-(1-piperidin-1-yl-cyclobutyl)-methyl]-4-trifluoromethyl-benzamide]
9 | 0.0139 µM | CSc1cc(C(F)(F)F)ccc1C(=O)NC(c1cccc(F)c1)C1(N2CCCC2)CCC1 (stereo not shown) [Example 55, N-[(3-Fluoro-phenyl)-(1-pyrrolidin-1-yl-cyclobutyl)-methyl]-2-methylsulfanyl-4-trifluoromethyl-benzamide]
10 | 0.034 µM | CSc1cccc(C(F)(F)F)c1C(=O)NC(c1ccccc1)C1(N2CCCC2)CCC1 (stereo not shown) [Example 13, 2-Methylsulfanyl-N-[phenyl-(1-pyrrolidin-1-yl-cyclobutyl)-methyl]-6-trifluoromethyl-benzamide]
11 | 0.0135 µM | COc1cc(C(F)(F)F)cc(SC)c1C(=O)NC(c1cccc(F)c1)C1(N2CCCC2)CCC1 (stereo not shown) [Example 56, N-[(3-Fluoro-phenyl)-(1-pyrrolidin-1-yl-cyclobutyl)-methyl]-2-methoxy-6-methylsulfanyl-4-trifluoromethyl-benzamide]
12 | 0.0175 µM | COc1cc(C(F)(F)F)cc(SC)c1C(=O)NC(c1ccc(F)cc1)C1(N2CCCC2)CCC1 (stereo not shown) [Example 38, N-[(4-Fluoro-phenyl)-(1-pyrrolidin-1-yl-cyclobutyl)-methyl]-2-methoxy-6-methylsulfanyl-4-trifluoromethyl-benzamide]
13 | 0.0951 µM | O=C(NC(c1ccccc1)C1(N2CCCC2)CCC1)c1ccccc1C(F)(F)F (stereo not shown) [Example 44, N-[Phenyl-(1-pyrrolidin-1-yl-cyclobutyl)-methyl]-2-trifluoromethyl-benzamide]
14 | 0.0253 µM | COc1cc(C(F)(F)F)cc(SC)c1C(=O)NC(c1ccccc1)C1(N2CCCC2)CC1 (stereo not shown) [Example 10, 2-Methoxy-6-methylsulfanyl-N-[phenyl-(1-pyrrolidin-1-yl-cyclopropyl)-methyl]-4-trifluoromethyl-benzamide]
15 | 0.0141 µM | COc1cc(C(F)(F)F)cc(SC)c1C(=O)NC(c1cc(F)cc(F)c1)C1(N2CCCC2)CCC1 (stereo not shown) [Example 53]
16 | 0.0562 µM | O=C(NC(c1ccccc1)C1(N2CCCC2)CCC1)c1ccc(C(F)(F)F)cc1-c1ccccc1 (stereo not shown) [Example 67, 5-Trifluoromethyl-biphenyl-2-carboxylic acid [phenyl-(1-pyrrolidin-1-yl-cyclobutyl)-methyl]-amide]
17 | 0.0915 µM | COc1cc(C(F)(F)F)cc(SC)c1C(=O)NC(c1ccccc1)C1(N2CCSCC2)CCC1 (stereo not shown) [Example 66, 2-Methoxy-6-methylsulfanyl-N-[phenyl-(1-thiomorpholin-4-yl-cyclobutyl)-methyl]-4-trifluoromethyl-benzamide]
18 | 0.0297 µM | Cc1cc(Cl)ccc1C(=O)NC(c1ccccc1)C1(N2CCCC2)CCC1 (stereo not shown) [Example 63, 4-Chloro-2-methyl-N-[phenyl-(1-pyrrolidin-1-yl-cyclobutyl)-methyl]-benzamide]

Row | Compound | IC50
19 | O=C(NC(c1ccccc1)C1(N2CCCC2)CCC1)c1ccc(Cl)cc1C(F)(F)F (stereo not shown) [Example 54] | 0.0275 µM
